{"source": "patent US20150015931A1", "about": "“ELECTROWETTING FLUIDS” (Merck Patent GmbH, priority 2012, published 2015)", "key": {"[1]": {"assay": "Solubility testing: saturation concentration of dye in non-polar solvent", "settings": "for Saturation concentration (%): in decane", "description": "A typical solubility test consists of one or more dyes dissolved in a suitable non-polar (hydrophobic) solvent, for example decane, at a concentration of 20% by weight for each dye. Samples are first vortex mixed for approximately 3 minutes and sonicated at 50° C. br 30 mins. They are then stirred for approximately 16 hours to ensure complete saturation. After stirring, samples are left to stand at room temperature for 2 hours before filtering through a 200 nm PTFE filter to give a saturated solution of dye in solvent.\nThe saturation concentrations and/or absorbance data for cells of varying thickness can be derived using the Beer-Lambert law:\nWhere A is absorbance (arbitrary unit) e=Molar extinction coefficient, c=Concentration (mol/l), l=path length (cm).\n(§1) The absorbance is measured using a Hitachi UV3310 UV-vis spectrophotometer."}, "[2]": {"assay": "Absorbance of the saturated dye solution at 5 micron thickness (Beer-Lambert law, UV-vis)", "type": "physicochemical", "settings": "in decane; for Absorbance (theoretical), at 5 micron thickness: Table 8", "description": "as §1"}, "[3]": {"settings": "at the wavelength printed in the row, Table 5"}, "[4]": {"settings": "at the wavelength printed in the row"}, "[5]": {"settings": "at the wavelength printed in the row, Table 6b"}}, "data": [{"smiles": "CCCCCNc1ccc(NCCCCC)c2c1C(=O)c1ccccc1C2=O", "note": "[Oil Blue N, reference compound]", "values": [{"measurement": "Dye saturation concentration % in Decane as solvent", "setting": "[1]", "value": 0.62, "unit": "%"}, {"measurement": "Dye saturation concentration % in (Decane/dye 2 as solvent)", "setting": "[1]", "value": 1.34, "unit": "%"}, {"measurement": "Dye saturation concentration % in (Decane/dye 12 as solvent)", "setting": "[1]", "value": 1.14, "unit": "%"}, {"measurement": "Saturation concentration (%)", "setting": "[1]; Table 5", "value": 0.657, "unit": "%"}, {"measurement": "Saturation concentration (%)", "setting": "[1]; Table 6a", "value": 0.657, "unit": "%"}, {"measurement": "Saturation concentration (%)", "setting": "[1]; Table 8", "value": 0.66, "unit": "%"}, {"measurement": "Absorbance at wavelength, at 5 micron thickness", "setting": "[2]; 646 nm, Table 6a", "value": 0.0938}, {"measurement": "Absorbance at wavelength, at 5 micron thickness", "setting": "[2]; [3]", "value": 0.114}, {"measurement": "Absorbance (theoretical), at 5 micron thickness", "setting": "[2]; [4]", "value": 0.0938}]}, {"smiles": "Cc1ccc(C)c(N=Nc2cc(C)c(N=Nc3c(O)ccc4ccccc34)cc2C)c1", "note": "[Oil Red O, reference compound]", "values": [{"measurement": "Dye saturation concentration % in Decane as solvent", "setting": "[1]", "value": 1.17, "unit": "%"}, {"measurement": "Dye saturation concentration % in (Decane/dye 2 as solvent)", "setting": "[1]", "value": 1.91, "unit": "%"}, {"measurement": "Dye saturation concentration % in (Decane/dye 12 as solvent)", "setting": "[1]", "value": 1.49, "unit": "%"}, {"measurement": "Saturation concentration (%)", "setting": "[1]; Table 5", "value": 1.615, "unit": "%"}, {"measurement": "Absorbance at wavelength, at 5 micron thickness", "setting": "[2]; [3]", "value": 0.2594}]}, {"smiles": "CCCCCCCCCCCCCCc1ccc(/N=N/c2c(C)c(C#N)c(=O)n(CC(CC)CCCC)c2O)cc1", "note": "(stereo not shown) [Dye 12, (E)-1-(2-Ethylhexyl)-6-hydroxy-4-methyl-2-oxo-5-((4-tetradecylphenyl)diazenyl)-1,2-dihydropyridine-3-carbonitrile]", "values": [{"measurement": "Saturation wt % in decane", "setting": "[1]; Table 4 Yellow Dyes", "value": 1.03, "unit": "wt %"}, {"measurement": "Saturation concentration (%)", "setting": "[1]; Table 6b", "value": 1.03, "unit": "%"}, {"measurement": "Absorbance at wavelength, at 5 micron thickness", "setting": "[2]; [5]", "value": 0.332}]}, {"smiles": "CCCCCCCCCCCCN(CCC(C)CC(C)(C)C)c1ccc(/N=N/c2cc(OCC(CC)CCCC)c(/N=N/c3ccc([N+](=O)[O-])cc3[N+](=O)[O-])cc2OCC(CC)CCCC)c(C)c1", "note": "(stereo not shown) [Dye 1g, 4-((E)-(4-((E)-(2,4-Dinitrophenyl)diazenyl)-2,5-bis(2-ethylhexyloxy)phenyl)diazenyl)-3-methyl-N-dodecyl-N-(3,5,5-trimethylhexyl)aniline]", "values": [{"measurement": "Saturation wt % in decane", "setting": "[1]; Table 1 Blue/Black Dyes", "value": 16.67, "unit": "wt %"}]}, {"smiles": "CCCCCCCCN(CCCCCCCC)c1ccc(/N=N/c2snc(C)c2C#N)c(NC(C)=O)c1", "note": "[Dye 11, N-(2-((4-Cyano-3-methylisothiazol-5-yl)diazenyl)-5-(dioctylamino)phenyl)acetamide]", "values": [{"measurement": "Dye saturation concentration % in Decane as solvent", "setting": "[1]", "value": 0.19, "unit": "%"}, {"measurement": "Dye saturation concentration % in (Decane/dye 2 as solvent)", "setting": "[1]", "value": 0.62, "unit": "%"}, {"measurement": "Dye saturation concentration % in (Decane/dye 12 as solvent)", "setting": "[1]", "value": 0.41, "unit": "%"}, {"measurement": "Saturation wt % in decane", "setting": "[1]; Table 3 Magenta Dyes", "value": 0.19, "unit": "wt %"}]}, {"smiles": "CCCCCCCCN(CCCCCCCC)c1ccc(/N=N/c2cc(OCC(CC)CCCC)c(/N=N/c3ccc([N+](=O)[O-])cc3[N+](=O)[O-])cc2OCC(CC)CCCC)c(C)c1", "note": "(stereo not shown) [Dye 1a, 4-((E)-(4-((E)-(2,4-Dinitrophenyl)diazenyl)-2,5-bis(2-ethylhexyloxy)phenyl)diazenyl)-3-methyl-N,N-dioctylaniline]", "values": [{"measurement": "Saturation wt % in decane", "setting": "[1]; Table 1 Blue/Black Dyes", "value": 100, "unit": "wt %"}, {"measurement": "Saturation concentration (%)", "setting": "[1]; Table 7", "value": 1.000, "unit": "%"}, {"measurement": "Absorbance (theoretical), at 5 um thickness", "setting": "[2]; at the wavelength printed in the row, Table 7", "value": 0.188}]}, {"smiles": "CCCCCCCCCCCCCCc1ccc(/N=N/c2c(C)cc(=O)n(CC(CC)CCCC)c2O)cc1", "note": "(stereo not shown) [Dye 13, (E)-1-(2-ethylhexyl)-6-hydroxy-4-methyl-5-((4-tetradecylphenyl)diazenyl)pyridin-2(1H)-one]", "values": [{"measurement": "Saturation wt % in decane", "setting": "[1]; Table 4 Yellow Dyes", "value": 3.72, "unit": "wt %"}, {"measurement": "Saturation concentration (%)", "setting": "[1]; Table 6b", "value": 3.72, "unit": "%"}, {"measurement": "Absorbance at wavelength, at 5 micron thickness", "setting": "[2]; [5]", "value": 0.915}]}, {"smiles": "CCCCCCCCCCCCCCN(CCCCCCCCCCCCCC)c1ccc(/N=N/c2cc(OCC(CC)CCCC)c(/N=N/c3ccc([N+](=O)[O-])cc3[N+](=O)[O-])cc2OCC(CC)CCCC)c(C)c1", "note": "(stereo not shown) [Dye 1f, 4-((E)-(4-((E)-(2,4-Dinitrophenyl)diazenyl)-2,5-bis(2-ethylhexyloxy)phenyl)diazenyl)-3-methyl-N,N-di-n-tetradecylaniline]", "values": [{"measurement": "Saturation wt % in decane", "setting": "[1]; Table 1 Blue/Black Dyes", "value": 15.2, "unit": "wt %"}]}, {"smiles": "CCCCc1ccc(/N=N/c2ccc(N(CCCC)CCCC)cc2)cc1", "note": "[Dye 14]", "values": [{"measurement": "Saturation wt % in decane", "setting": "[1]; Table 4 Yellow Dyes", "value": 9.95, "unit": "wt %"}]}, {"smiles": "CCCCCCCCCCN(CCCCCCCCCC)c1ccc(/N=N/c2cc(OCC(CC)CCCC)c(/N=N/c3ccc([N+](=O)[O-])cc3[N+](=O)[O-])cc2OCC(CC)CCCC)c(C)c1", "note": "(stereo not shown) [Dye 1d, 4-((E)-(4-((E)-(2,4-Dinitrophenyl)diazenyl)-2,5-bis(2-ethylhexyloxy)phenyl)diazenyl)-3-methyl-N,N-di-n-decylaniline]", "values": [{"measurement": "Saturation wt % in decane", "setting": "[1]; Table 1 Blue/Black Dyes", "value": 2.39, "unit": "wt %"}]}, {"smiles": "CCCCC(CC)COc1cc(/N=N/c2ccc([N+](=O)[O-])cc2[N+](=O)[O-])c(OCC(CC)CCCC)cc1/N=N/c1ccc(N(CC(CC)CCCC)CC(CC)CCCC)cc1C", "note": "(stereo not shown) [Dye 1b, 4-((E)-(4-((E)-(2,4-Dinitrophenyl)diazenyl)-2,5-bis(2-ethylhexyloxy)phenyl)diazenyl)-3-methyl-N,N-di-(2-ethylhexyl)aniline]", "values": [{"measurement": "Saturation wt % in decane", "setting": "[1]; Table 1 Blue/Black Dyes", "value": 17.19, "unit": "wt %"}]}, {"smiles": "CCCCC(CC)COc1cc(/N=N/c2ccc([N+](=O)[O-])cc2[N+](=O)[O-])c(OCC(CC)CCCC)cc1/N=N/c1ccc(N(CCC(C)CC(C)(C)C)CCC(C)CC(C)(C)C)cc1C", "note": "(stereo not shown) [Dye 1c, 4-((E)-(4-((E)-(2,4-Dinitrophenyl)diazenyl)-2,5-bis(2-ethylhexyloxy)phenyl)diazenyl)-3-methyl-N,N-d i-(3,5,5-trimethylhexyl)aniline]", "values": [{"measurement": "Saturation wt % in decane", "setting": "[1]; Table 1 Blue/Black Dyes", "value": 3.53, "unit": "wt %"}]}, {"smiles": "CCCCCCCCCCCCCCCCCCN(CCCCCCCCCCCCCCCCCC)c1cc(NC(C)=O)c(/N=N/c2c(C#N)cc([N+](=O)[O-])cc2C#N)cc1OC", "note": "[Dye 8, N-(2-((2,6-Dicyano-4-nitrophenyl)diazenyl)-5-(dioctadecylamino)-4-methoxyphenyl)acetamide]", "values": [{"measurement": "Dye saturation concentration % in Decane as solvent", "setting": "[1]", "value": 0.003, "unit": "%"}, {"measurement": "Dye saturation concentration % in (Decane/dye 2 as solvent)", "setting": "[1]", "value": 0.18, "unit": "%"}, {"measurement": "Dye saturation concentration % in (Decane/dye 12 as solvent)", "setting": "[1]", "value": 0.18, "unit": "%"}, {"measurement": "Saturation wt % in decane", "setting": "[1]; Table 2 Cyan Dyes", "value": 0.003, "unit": "wt %"}]}, {"smiles": "CCCCCCCCCCCCN(CCCCCCCCCCCC)c1ccc(/N=N/c2cc(OCC(CC)CCCC)c(/N=N/c3ccc([N+](=O)[O-])cc3[N+](=O)[O-])cc2OCC(CC)CCCC)c(C)c1", "note": "(stereo not shown) [Dye 1e, 4-((E)-(4-((E)-(2,4-Dinitrophenyl)diazenyl)-2,5-bis(2-ethylhexyloxy)phenyl)diazenyl)-3-methyl-N,N-di-n-dodecylaniline]", "values": [{"measurement": "Saturation wt % in decane", "setting": "[1]; Table 1 Blue/Black Dyes", "value": 5.17, "unit": "wt %"}]}, {"smiles": "Cc1ccccc1/N=N/c1ccc(/N=N/c2c(O)ccc3ccccc23)c(C)c1", "note": "[Solvent Red 24, reference compound]", "values": [{"measurement": "Saturation concentration (%)", "setting": "[1]; Table 5", "value": 0.6, "unit": "%"}, {"measurement": "Absorbance at wavelength, at 5 micron thickness", "setting": "[2]; [3]", "value": 0.1579}]}, {"smiles": "CCCCCCCCN(CCCCCCCC)c1ccc(/N=N/c2ccc([N+](=O)[O-])cc2)c(C)c1", "note": "[Dye 15, (E)-3-Methyl-4-((4-nitrophenyl)diazenyl)-N,N-dioctylaniline]", "values": [{"measurement": "Saturation wt % in decane", "setting": "[1]; Table 4 Yellow Dyes", "value": 10.50, "unit": "wt %"}, {"measurement": "Saturation concentration (%)", "setting": "[1]; Table 5", "value": 8.58, "unit": "%"}, {"measurement": "Absorbance at wavelength, at 5 micron thickness", "setting": "[2]; [3]", "value": 2.765}]}, {"smiles": "CCCCNc1ccc(NCCCC)c2c1C(=O)c1ccccc1C2=O", "note": "[Solvent Blue 35, reference compound]", "values": [{"measurement": "Dye saturation concentration % in Decane as solvent", "setting": "[1]", "value": 0.33, "unit": "%"}, {"measurement": "Dye saturation concentration % in (Decane/dye 2 as solvent)", "setting": "[1]", "value": 0.69, "unit": "%"}, {"measurement": "Dye saturation concentration % in (Decane/dye 12 as solvent)", "setting": "[1]", "value": 0.62, "unit": "%"}, {"measurement": "Saturation concentration (%)", "setting": "[1]; Table 5", "value": 0.385, "unit": "%"}, {"measurement": "Saturation concentration (%)", "setting": "[1]; Table 6a", "value": 0.385, "unit": "%"}, {"measurement": "Saturation concentration (%)", "setting": "[1]; Table 8", "value": 0.385, "unit": "%"}, {"measurement": "Absorbance at wavelength, at 5 micron thickness", "setting": "[2]; 646 nm, Table 6a", "value": 0.0531}, {"measurement": "Absorbance at wavelength, at 5 micron thickness", "setting": "[2]; [3]", "value": 0.044}, {"measurement": "Absorbance (theoretical), at 5 micron thickness", "setting": "[2]; [4]", "value": 0.0531}]}]}
